Source: patent publication US20030171371A1, “Immunosuppressant n-acyles homoserine lactones” (priority 2000, published 2003)

Key:
murine splenocytes = assay: ConA mitogen-stimulated proliferation of murine splenocytes ([3H]-thymidine incorporation); format: cell-based, mouse (BALB/c); conditions: for effect on ConA induced splenocyte proliferation (cpm vs concentration): FIG. 1
Procedure: Proliferation was assessed by the incorporation of [^3H]-thymidine into DNA. Eight-week-old female BALB/c mice were obtained from Harlan (Bicester, Oxon, UK) and given food and water ad libitum. Splenocyte suspensions were prepared by removing the spleens and placing them into RPMI 1640 medium. The spleens were forced through 70-μm-pore-size wire gauzes using the plunger from a 5-ml syringe to produce a single cell suspension. […] Leucocytes were washed twice with RPMI 1640 medium with 2% (vol/vol) foetal calf serum (FCS) and resuspended in complete cell culture medium (CTCM) consisting of RPMI 1640 medium with 5% FCS, 2 mM L-glutamine, and 5×10^−5 M 2-mercaptoethanol. HSL compounds were tested at doubling down dilutions ranging from 1 mM to 0.1 μM in a final volume of 200 μl of CTCM, containing ConA (Sigma, Poole, UK) at 1 μg/ml and 100,000 spleen cells. Following incubation for 48 h at 37° C. in 5% CO2-air, 0.25 μCi [^3H]-thymidine (Amersham) in 10 μl volume made up in RPMI 1640 medium was added and the cells were incubated for a further 24 h. Cells were harvested onto fibreglass filters with a Packard filtermate harvester. After the addition of 25 μl of MicroScint-O (Packard) to each well the filters were counted with the Packard TopCount scintillation counter.
Mitogen (Concanavalin A) induced murine splenocyte proliferation was indicated by the incorporation of tritated thymidine into the DNA in the mouse spleen cells as shown by counts per minute using the scintillation counter. The inhibitory effect of an HSL compound being tested on cell proliferation was indicated by a reduction in counts per minute.

human PBMC = assay: ConA mitogen-stimulated proliferation of human PBMC ([3H]-thymidine incorporation); format: cell-based; conditions: FIG. 2
Procedure: II. ConA Mitogen-Stimulated Proliferation of Human PBMC
Blood specimens were obtained with consent from healthy human volunteers. Human peripheral blood mononuclear cells (PBMC) were isolated from heparinised whole blood by buoyant density centrifugation over Histopaque 1077 (Sigma, Poole, UK) at 600 g for 20 minutes. PBMC harvested from the ‘buffy’ layers were washed twice with RPMI 1640 medium and resuspended in CTCM. HSL compounds were tested at similar dilutions as for murine splenocytes in 200 μl of CTCM, containing 1 μg/ml of ConA and 100,000 PBMC. Human PBMC were incubated for 48 h at 37° C. in 5% CO2-air, followed by pulsing with 0.25 μCi [^3H]-thymidine (see above). After a further incubation of 24 h cells were harvested onto fibreglass filters and then counted in the presence of MicroScint-O with the Packard TopCount.
Concanavalin induced cell proliferation of human peripheral blood mononuclear cells (PBMC) was tracked, as described in I above, by a measurement of counts per minute using the scintillation counter. The inhibitory effect of an HSL compound being tested on cell proliferation was indicated by a reduction in counts per minute.
Columns B, C and D represent different sources of human PBMC samples used.

[1] = tested on: TNF-alpha production from LPS-stimulated human PBMC; assay: TNF-alpha production from LPS-stimulated human PBMC (sandwich ELISA); format: cell-based; conditions: FIG. 3, FIG. 5
Procedure: Bacterial lipopolysaccharide (LPS) stimulates the production of a variety of cytokines, including TNF-alpha, from human PBMC; these cytokines in turn influence the development of T cells, supporting a T helper 1 conducive milieu. Human PBMC prepared from whole blood by buoyant density centrifugation were resuspended in CTCM. […] Following incubation for 24 h at 37° C. in 5% CO2-air, the cell culture supernatants were collected and tested for TNF-alpha levels by ‘sandwich’ ELISA. Briefly, 96-well Nunc MaxiSorp (Life Technologies, Paisley, UK) plates were coated with 50 μl of a 2 μg/ml solution of mouse anti-human TNF-alpha monoclonal antibody (Pharmingen, UK) in 0.05 M carbonate/bicarbonate buffer, pH 9.6 overnight at 4° C. […] Following three washes with PBS-Tween, 50 μl of cell culture supernatants were added and incubated overnight at 4° C.; standard human TNF-alpha (Pharmingen, UK) ranging from 2000 to 31.25 pg/ml were included for each plate. […] Following four washes, the bound biotinylated antibody was detected with 50 μl of a 1:1,000 dilution of Streptavidin-peroxidase (Pharmingen, UK). At the end of an hour incubation at room temperature, the plates were thoroughly washed six times with PBS-Tween and the assay was developed by the addition of 100 μl of 0.1 mg/ml of tetramethyl benzidine subtrate (Sigma, Poole, UK) in 0.1 M sodium acetate buffer, pH 6 containing 0.03% H2O2. The enzyme reaction was stopped with 50 μl of 2.5 M H2SO4 after an incubation of 10 minutes at room temperature and the development was read at 450 nm with a spectrophotometric 96-well plate reader (Dynex).

murine spleen cells = conditions: literature report; cited from earlier work
[2] = tested on: TNF-a production by LPS-stimulated adherent murine peritoneal macrophages; conditions: literature report; cited from earlier work

Row | Compound | effect on ConA induced splenocyte proliferation (cpm vs concentration) (murine splenocytes) | effect on proliferation of human PBMC stimulated with Concanavalin A (cpm vs concentration) (human PBMC) | effect on LPS induced TNF-α secretion by human PBMC [1] | further results
1 | CCCCCCCCCC(=O)CC(=O)N[C@H]1CCOC1=O [Example 6, N-(3-Oxododecanoyl)-L-homoserine lactone] | inhibits splenocyte proliferation | inhibited proliferation of human PBMC | inhibited the secretion of the T helper 1-supporting cytokine TNF-α | effect on concavalin A mitogen stimulated proliferation of murine spleen cells (murine spleen cells): inhibiting; effect on TNF-a production by LPS-stimulated adherent murine peritoneal macrophages [2]: inhibiting
2 | CCCCCCCCCCCC(=O)CC(=O)N[C@H]1CCOC1=O [Example 11, N-(3-Oxotetradecanoyl)-L-homoserine lactone] |  | inhibited proliferation of human PBMC | inhibited the secretion of the T helper 1-supporting cytokine TNF-α | 
3 | CCCC(=O)CC(=O)N[C@H]1CCOC1=O [OHHL, N-(3-oxohexanoyl)-L-homoserine lactone] |  |  | difference in activity between OHHL and OdDHL is marked | 
4 | CCCCCC(=O)CC(=O)N[C@H]1CCOC1=O [OOHL, N-(3-oxooctanoyl)-L-homoserine lactone] | failed to inhibit proliferation |  |  | 
5 | N-(3-Hydroxy-9-tetradecenoyl)-L-homoserine lactone [Example 24] |  |  |  | IC50 (murine splenocytes; Experiment I, ConA 1 μg/ml, 100,000 spleen cells, read-out: IC50, inhibition of ConA induced murine splenocyte proliferation (column A)): 15 µM
